Active and inactive are the calls of the source. The rule behind the calls is not given here. Where a SMILES comes first, the peptide text is derived from it. The star is where a group is joined. Boc = CC(C)(C)OC(=O)*
These compounds were tested against DNA-directed RNA polymerase subunit beta (Escherichia coli (strain K12)) (UniProt P0A8V2) (assay: E. coli RNAP inhibitors, dose response, biochemical, confirmation (AID 826)). Conditions: E. coli RNA polymerase biochemical transcription assay.
Sequence of DNA-directed RNA polymerase subunit beta (Escherichia coli (strain K12)) (P0A8V2 whole entry, looked up): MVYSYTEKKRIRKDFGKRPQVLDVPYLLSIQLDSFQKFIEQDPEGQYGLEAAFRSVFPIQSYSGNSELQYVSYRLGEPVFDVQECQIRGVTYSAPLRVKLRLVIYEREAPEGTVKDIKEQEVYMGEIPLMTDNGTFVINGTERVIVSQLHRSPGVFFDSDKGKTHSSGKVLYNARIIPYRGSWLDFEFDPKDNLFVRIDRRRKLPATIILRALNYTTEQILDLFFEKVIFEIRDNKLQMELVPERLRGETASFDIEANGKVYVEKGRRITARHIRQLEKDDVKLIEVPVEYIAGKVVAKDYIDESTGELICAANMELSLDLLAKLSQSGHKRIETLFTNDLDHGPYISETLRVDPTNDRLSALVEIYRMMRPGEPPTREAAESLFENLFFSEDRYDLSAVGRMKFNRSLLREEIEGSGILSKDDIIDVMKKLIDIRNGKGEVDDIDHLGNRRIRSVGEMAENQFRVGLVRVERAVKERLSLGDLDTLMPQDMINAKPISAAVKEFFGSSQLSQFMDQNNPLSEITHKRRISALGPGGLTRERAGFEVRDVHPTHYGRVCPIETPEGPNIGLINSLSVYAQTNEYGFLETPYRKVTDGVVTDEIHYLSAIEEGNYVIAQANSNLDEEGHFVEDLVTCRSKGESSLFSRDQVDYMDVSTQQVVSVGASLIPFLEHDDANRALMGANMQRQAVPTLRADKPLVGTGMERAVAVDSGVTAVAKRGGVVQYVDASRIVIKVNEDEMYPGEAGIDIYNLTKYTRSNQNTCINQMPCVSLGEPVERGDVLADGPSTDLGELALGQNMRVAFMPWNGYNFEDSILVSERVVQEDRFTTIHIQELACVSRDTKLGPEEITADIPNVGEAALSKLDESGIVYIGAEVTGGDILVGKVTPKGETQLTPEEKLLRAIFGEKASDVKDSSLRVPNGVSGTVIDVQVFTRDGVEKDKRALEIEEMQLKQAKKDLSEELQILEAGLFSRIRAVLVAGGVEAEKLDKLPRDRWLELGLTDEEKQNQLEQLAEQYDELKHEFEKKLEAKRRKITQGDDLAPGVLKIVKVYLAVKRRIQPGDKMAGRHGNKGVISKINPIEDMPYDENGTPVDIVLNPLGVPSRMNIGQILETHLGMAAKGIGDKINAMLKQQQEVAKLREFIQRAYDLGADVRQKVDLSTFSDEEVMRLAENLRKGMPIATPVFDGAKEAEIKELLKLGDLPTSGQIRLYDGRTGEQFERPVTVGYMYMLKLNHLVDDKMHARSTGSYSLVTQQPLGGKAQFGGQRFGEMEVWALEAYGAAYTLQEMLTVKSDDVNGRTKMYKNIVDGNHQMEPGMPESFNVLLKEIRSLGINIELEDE
In the case of `O=C1N(O)C2(C=CCCC2)/C(=N\O)C12CCCCC2` (configuration not stated), the IC50 is reported as > 50 µM (inactive).
In the case of `CC(C)(C)OC(=O)N1CCCC1C(=O)N1CCCC1C(=O)N1CCCC1C(=O)O` (stereo not drawn) (Boc-Pro-Pro-Pro-OH; configuration not given here), the IC50 is reported as > 50 µM (inactive).
In the case of `CCCCn1c(O)c(C(CC)=NCCCN(C)C)c(=O)[nH]c1=O`, the IC50 is reported as > 50 µM (inactive).
For `CC(=O)C1=C(C)Nc2cc(C(F)(F)F)ccc2S1`, the IC50 was > 50 µM (inactive).
With `CCOC(=O)C1=C(c2ccccc2)OC(N)=C(C#N)C1C(C)C` (configuration not stated) the IC50 was > 50 µM (inactive).
In the case of `COCCN1C(=O)C(O)=C(C(C)=O)C1c1ccc(OC)c(OC)c1` (configuration not stated), the IC50 is reported as > 50 µM (inactive).
`COc1ccc(C2=NO[C@@H]3C(=O)N(c4c(C)cccc4C)C(=O)[C@H]23)cc1OC` was tested, and the IC50 was > 50 µM (inactive).
